Data from patent US9695192B2, “Fused heterocyclic compounds as ion channel modulators” (GILEAD SCIENCES, INC., priority 2011, dated 2017).

Legend:
Format in all cases: cell-based
[1] = biological target: wild-type human cardiac sodium channel, hNav1.5 (Homo sapiens, UniProt Q14524); assay: Late INa screening assay (QPatch whole cell patch clamp, tefluthrin-enhanced late sodium current); conditions: HEK293 hNav1.5, late INa activated with 10 μM Tefluthrin
In short: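 Automated whole-cell patch clamp of HEK293 cells stably expressing hNav1.5 (no β subunits), 23-25 °C. Late current enhanced by 10 μM tefluthrin, 250 ms steps to −20 mV from −120 mV at 0.1 Hz, measured 225-250 ms. Compounds typically 1 μM, three additions over 7-8 min; % block normalised to 0 Na baseline.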

human Nav1.1 = biological target: T1, human Nav1.1 (Homo sapiens, UniProt P35498); assay: Nav1.1 use-dependent block, whole-cell voltage clamp, 10 Hz pulse train; conditions: Chantest conditions, read-out: NAV1.1 UDB-10 HZ % Inhibition
T1 construct: expressed in transfected cells; host or cells: HEK293, transient transfection (Qiagen Superfect), α1:β1:β2 at 10:1:1

hNav1.2 sodium channel = biological target: T2, hNav1.2 sodium channel (Homo sapiens, UniProt Q99250); assay: Nav1.2 use-dependent block, whole-cell voltage clamp, 10 Hz pulse train; conditions: Chantest conditions, read-out: NAV1.2 UDB-10 HZ % Inhibition
T2 construct: expressed in transfected cells
Excerpt: Wild-type (WT) cDNA stably transfected in Chinese hamster ovary (CHO) cells is used to record INa. Unless otherwise noted, all reagents are purchased from Sigma-Aldrich (St Louis, Mo., U.S.A.).
Whole-cell voltage-clamp recordings are used to measure the biophysical properties of WT. Briefly, the pipette solution consists of (in mM) 110 CsF, 10 NaF, 20 CsCl, 2 EGTA, 10 HEPES, with a pH of 7.35 and osmolarity of 300 mOsmol/kg. The bath (control) solution contains in (mM): 145 NaCl, 4 KCl, 1.8 CaCl2, 1 MgCl2, 10 dextrose, 10 HEPES, with a pH of 7.35 and osmolarity of 310 mOsmol/kg. Cells are allowed to stabilize for 10 min after establishment of the whole-cell configuration before current is measured. Series resistance is compensated 90% to assure that the command potential is reached within microseconds with a voltage error<2 mV. Leak currents are subtracted by using an online P/4 procedure and all currents are low-pass Bessel filtered at 5 kHz and digitized at 50 kHz.
Tonic block of peak current is measured using a step to −10 mV (20 ms) from a holding potential of −120 mV (0.2 Hz). Use-dependent block of peak current is measured during pulse number 300 of a pulse train (−10 mV, 5 ms, 300 pulses, 10 Hz or 25 Hz) from a holding potential of −120 mV. Currents are then normalized to the peak current recorded in response to the first pulse in each frequency train. For tonic block studies, peak current is evaluated in response to a 20 ms depolarization to −10 mV (0.2 Hz). Two sequential pulse train stimulations are averaged to obtain mean current traces for each recording condition, which are then used for offline subtraction and analysis.
A stock solution of 10 mM compound of Formula I is prepared in 0.1 M HCl or DMSO. A fresh dilution of the compound of Formula I in the bath solution is prepared every experimental day and the pH is readjusted to 7.35 as necessary. The final DMSO concentration was kept at 0.1% in all solutions. Direct application of the perfusion solution to the clamped cell is achieved using the Perfusion Pencil system (Automate, Berkeley, Calif.). Direct cell perfusion is driven by gravity at a flow rate of 350 μL/min using a 250 micron tip. This system sequesters the clamped cell within a perfusion stream and enables complete solution exchange within 1 second. The clamped cell is perfused continuously starting immediately after establishing the whole-cell configuration. Control currents are measured during control solution perfusion.
Solutions are perfused for three minutes prior to current recordings to allow equilibrium (tonic) drug block. Tonic block of peak currents is measured from this steady-state condition. Three sequential current traces are averaged to obtain a mean current for each recording. The mean current traces are utilized for offline analysis.

T2 sequence (Q99250 whole entry): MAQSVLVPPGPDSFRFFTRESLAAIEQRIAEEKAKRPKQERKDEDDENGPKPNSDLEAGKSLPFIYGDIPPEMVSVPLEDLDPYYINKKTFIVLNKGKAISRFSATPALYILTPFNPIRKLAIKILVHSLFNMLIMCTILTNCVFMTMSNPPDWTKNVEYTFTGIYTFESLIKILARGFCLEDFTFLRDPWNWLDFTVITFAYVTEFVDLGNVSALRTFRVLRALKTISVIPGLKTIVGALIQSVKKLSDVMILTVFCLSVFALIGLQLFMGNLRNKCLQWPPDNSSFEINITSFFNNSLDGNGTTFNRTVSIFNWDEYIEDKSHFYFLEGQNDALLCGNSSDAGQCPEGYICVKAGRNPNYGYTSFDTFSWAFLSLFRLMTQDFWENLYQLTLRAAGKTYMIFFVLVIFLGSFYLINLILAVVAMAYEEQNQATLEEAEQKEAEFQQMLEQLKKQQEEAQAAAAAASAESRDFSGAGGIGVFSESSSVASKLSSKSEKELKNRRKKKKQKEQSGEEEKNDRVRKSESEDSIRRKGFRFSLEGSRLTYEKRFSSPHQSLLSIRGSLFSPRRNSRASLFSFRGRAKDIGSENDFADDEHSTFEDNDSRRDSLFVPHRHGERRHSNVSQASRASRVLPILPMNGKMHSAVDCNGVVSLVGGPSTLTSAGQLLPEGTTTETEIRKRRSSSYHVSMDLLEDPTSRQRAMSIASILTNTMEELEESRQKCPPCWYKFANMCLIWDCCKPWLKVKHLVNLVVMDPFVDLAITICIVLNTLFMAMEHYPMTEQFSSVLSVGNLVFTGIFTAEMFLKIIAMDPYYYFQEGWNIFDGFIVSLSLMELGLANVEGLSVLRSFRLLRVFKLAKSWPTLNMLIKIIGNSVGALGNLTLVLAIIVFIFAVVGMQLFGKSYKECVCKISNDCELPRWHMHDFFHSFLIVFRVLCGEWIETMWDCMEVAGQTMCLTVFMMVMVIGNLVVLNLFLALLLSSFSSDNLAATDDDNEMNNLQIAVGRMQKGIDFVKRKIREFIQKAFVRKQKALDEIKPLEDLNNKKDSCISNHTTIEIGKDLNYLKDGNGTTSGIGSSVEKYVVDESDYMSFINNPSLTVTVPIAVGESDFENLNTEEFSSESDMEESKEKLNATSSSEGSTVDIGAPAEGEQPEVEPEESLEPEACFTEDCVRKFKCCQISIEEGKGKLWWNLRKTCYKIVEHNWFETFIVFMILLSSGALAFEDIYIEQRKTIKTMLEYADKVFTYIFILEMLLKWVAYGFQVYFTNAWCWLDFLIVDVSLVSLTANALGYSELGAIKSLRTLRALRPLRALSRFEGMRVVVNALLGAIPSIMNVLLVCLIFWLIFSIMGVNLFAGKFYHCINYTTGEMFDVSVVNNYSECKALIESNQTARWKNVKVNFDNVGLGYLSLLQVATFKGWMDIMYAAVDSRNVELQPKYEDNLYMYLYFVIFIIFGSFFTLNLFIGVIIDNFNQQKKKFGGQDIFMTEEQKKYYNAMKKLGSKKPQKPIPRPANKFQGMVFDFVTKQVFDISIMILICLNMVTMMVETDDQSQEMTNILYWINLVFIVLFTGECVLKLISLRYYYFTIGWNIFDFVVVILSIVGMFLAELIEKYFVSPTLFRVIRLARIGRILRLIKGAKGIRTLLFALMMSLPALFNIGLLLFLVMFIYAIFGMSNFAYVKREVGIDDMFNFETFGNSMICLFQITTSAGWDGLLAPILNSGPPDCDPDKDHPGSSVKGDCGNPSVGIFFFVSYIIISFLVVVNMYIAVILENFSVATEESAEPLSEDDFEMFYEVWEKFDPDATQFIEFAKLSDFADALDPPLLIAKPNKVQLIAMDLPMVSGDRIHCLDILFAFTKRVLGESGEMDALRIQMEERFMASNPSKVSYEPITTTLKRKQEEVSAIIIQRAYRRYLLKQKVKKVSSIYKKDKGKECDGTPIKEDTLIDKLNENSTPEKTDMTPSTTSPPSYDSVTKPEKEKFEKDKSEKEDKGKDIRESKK
wild-type human cardiac sodium channel, hNav1.5, sequence (Q14524 whole entry): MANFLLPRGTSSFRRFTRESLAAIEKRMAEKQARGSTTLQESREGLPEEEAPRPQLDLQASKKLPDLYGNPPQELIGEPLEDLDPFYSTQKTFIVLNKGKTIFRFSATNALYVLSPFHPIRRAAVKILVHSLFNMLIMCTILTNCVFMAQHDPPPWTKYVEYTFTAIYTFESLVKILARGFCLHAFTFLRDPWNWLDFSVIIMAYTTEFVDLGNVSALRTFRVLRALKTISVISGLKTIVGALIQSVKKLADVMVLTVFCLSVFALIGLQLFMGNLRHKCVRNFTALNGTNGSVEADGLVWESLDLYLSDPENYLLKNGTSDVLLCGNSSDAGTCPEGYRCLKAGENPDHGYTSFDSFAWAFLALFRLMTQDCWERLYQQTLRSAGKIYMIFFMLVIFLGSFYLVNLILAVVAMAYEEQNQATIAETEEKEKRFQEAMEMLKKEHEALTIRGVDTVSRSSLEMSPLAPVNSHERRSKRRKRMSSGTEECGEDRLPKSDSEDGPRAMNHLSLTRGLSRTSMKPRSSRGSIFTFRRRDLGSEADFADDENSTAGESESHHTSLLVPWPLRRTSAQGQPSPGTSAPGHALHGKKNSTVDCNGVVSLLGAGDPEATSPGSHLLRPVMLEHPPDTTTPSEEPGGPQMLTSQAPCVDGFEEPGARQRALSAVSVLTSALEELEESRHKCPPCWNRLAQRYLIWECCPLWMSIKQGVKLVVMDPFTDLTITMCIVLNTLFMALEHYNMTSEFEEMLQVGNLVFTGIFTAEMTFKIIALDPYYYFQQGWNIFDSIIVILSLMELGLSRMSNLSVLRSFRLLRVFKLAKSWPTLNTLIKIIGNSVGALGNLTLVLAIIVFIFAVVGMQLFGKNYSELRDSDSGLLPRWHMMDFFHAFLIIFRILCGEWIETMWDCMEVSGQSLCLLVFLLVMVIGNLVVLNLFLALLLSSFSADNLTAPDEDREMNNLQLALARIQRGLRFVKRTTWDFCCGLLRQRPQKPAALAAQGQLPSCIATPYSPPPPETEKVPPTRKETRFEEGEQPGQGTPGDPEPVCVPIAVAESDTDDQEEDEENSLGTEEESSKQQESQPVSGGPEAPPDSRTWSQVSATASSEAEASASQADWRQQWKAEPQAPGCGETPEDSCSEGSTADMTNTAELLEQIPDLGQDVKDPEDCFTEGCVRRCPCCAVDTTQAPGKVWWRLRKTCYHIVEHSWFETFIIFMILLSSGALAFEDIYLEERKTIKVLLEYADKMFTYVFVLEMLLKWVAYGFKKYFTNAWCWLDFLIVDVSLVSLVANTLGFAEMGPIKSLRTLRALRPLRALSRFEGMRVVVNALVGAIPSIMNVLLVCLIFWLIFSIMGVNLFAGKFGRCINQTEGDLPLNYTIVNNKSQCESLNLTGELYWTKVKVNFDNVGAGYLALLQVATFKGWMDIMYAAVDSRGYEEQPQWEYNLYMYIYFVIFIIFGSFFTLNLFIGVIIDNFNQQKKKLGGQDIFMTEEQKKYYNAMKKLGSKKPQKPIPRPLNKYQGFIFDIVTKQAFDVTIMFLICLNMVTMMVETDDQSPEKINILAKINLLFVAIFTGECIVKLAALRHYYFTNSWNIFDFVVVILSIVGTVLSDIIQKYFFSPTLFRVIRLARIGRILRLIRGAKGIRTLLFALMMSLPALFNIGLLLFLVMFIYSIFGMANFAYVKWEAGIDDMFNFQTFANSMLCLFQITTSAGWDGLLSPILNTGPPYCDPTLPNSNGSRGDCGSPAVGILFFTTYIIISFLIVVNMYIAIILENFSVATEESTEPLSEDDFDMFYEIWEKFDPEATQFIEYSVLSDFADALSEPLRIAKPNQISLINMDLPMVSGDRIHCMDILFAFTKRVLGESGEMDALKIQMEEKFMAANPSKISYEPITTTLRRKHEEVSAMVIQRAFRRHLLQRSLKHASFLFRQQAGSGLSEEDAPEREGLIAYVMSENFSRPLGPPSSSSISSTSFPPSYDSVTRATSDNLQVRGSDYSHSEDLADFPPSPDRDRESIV

inhibition at 1 µM (human Nav1.1) [%] | inhibition at 1 µM (hNav1.2 sodium channel) [%] | Structure (SMILES) | inhibition at 1 µM [1] [%]
-5 | 0 | CC(C)(O)c1cnc2n1CCOc1ccc(-c3ccc(C(F)(F)F)cc3)cc1-2 [Compound I-10, 2-(10-(4-(trifluoromethyl)phenyl)-5,6-dihydrobenzo[f]imidazo[1,2-d][1,4]oxazepin-3-yl)propan-2-ol] | 10
-5 | -5 | FC(F)(F)c1ccc(-c2ccc3c(c2)-c2ncc(Cc4ccccc4)n2CCO3)cc1 [Compound I-11, 3-benzyl-10-(4-(trifluoromethyl)phenyl)-5,6-dihydrobenzo[f]imidazo[1,2-d][1,4]oxazepine] | 13
-3 | 8 | FC(F)(F)c1ccc(-c2ccc3c(c2)-c2ncc(Cl)n2CCO3)cc1 [Compound I-13, 3-chloro-10-(4-(trifluoromethyl)phenyl)-5,6-dihydrobenzo[f]imidazo[1,2-d][1,4]oxazepine] | 6
-10 | -3 | Cc1cnc2n1CCOc1ccc(-c3ccc(C(F)(F)F)cc3)cc1-2 [Compound I-6, 3-methyl-10-(4-(trifluoromethyl)phenyl)-5,6-dihydrobenzo[f]imidazo[1,2-d][1,4]oxazepine] | 28
0 | 4 | Cc1c(Cl)nc2n1CCOc1ccc(-c3ccc(C(F)(F)F)cc3)cc1-2 [Compound I-14, 2-chloro-3-methyl-10-(4-(trifluoromethyl)phenyl)-5,6-dihydrobenzo[f]imidazo[1,2-d][1,4]oxazepine] | 11
4 | 0 | FC(F)(F)c1ccc(-c2ccc3c(c2)-c2ncc(C4CC4)n2CCO3)cc1 [Compound I-9, 3-cyclopropyl-10-(4-(trifluoromethyl)phenyl)-5,6-dihydrobenzo[f]imidazo[1,2-d][1,4]oxazepine] | 4
-7 | 6 | FC(F)(F)c1ccc(-c2ccc3c(c2)-c2ncc(Br)n2CCO3)cc1 [Compound I-12, 3-bromo-10-(4-(trifluoromethyl)phenyl)-5,6-dihydrobenzo[f]imidazo[1,2-d][1,4]oxazepine] | 4
1 | 18 | FC(F)(F)Oc1ccc(-c2ccc3c(c2)-c2nccn2CCO3)cc1 [Compound I-2, 10-(4-(trifluoromethoxy)phenyl)-5,6-dihydrobenzo[f]imidazo[1,2-d][1,4]oxazepine] | 31
-12 | 2 | FC(F)(F)c1ccc(-c2ccc3c(c2)-c2nccn2CCO3)cc1 [Compound I-1, 10-(4-(trifluoromethyl)phenyl)-5,6-dihydrobenzo[f]imidazo[1,2-d][1,4]oxazepine] | 32
